Assay results published in PubChem BioAssay AID1033 (Sanford-Burnham Center for Chemical Genomics, 2008).
Calls of active or inactive are those of the source. The rule behind the calls is not given here.

Each compound was assayed against Chaperone protein DnaK (Escherichia coli (strain K12)) (UniProt P0A6Y8) (assay: E. coli DnaK SBD ligand binding – biophysical, NMR, chaperone (AID 1033)). Conditions: Purified DnaK SBD.
Chain of Chaperone protein DnaK (Escherichia coli (strain K12)) (P0A6Y8 whole entry, looked up): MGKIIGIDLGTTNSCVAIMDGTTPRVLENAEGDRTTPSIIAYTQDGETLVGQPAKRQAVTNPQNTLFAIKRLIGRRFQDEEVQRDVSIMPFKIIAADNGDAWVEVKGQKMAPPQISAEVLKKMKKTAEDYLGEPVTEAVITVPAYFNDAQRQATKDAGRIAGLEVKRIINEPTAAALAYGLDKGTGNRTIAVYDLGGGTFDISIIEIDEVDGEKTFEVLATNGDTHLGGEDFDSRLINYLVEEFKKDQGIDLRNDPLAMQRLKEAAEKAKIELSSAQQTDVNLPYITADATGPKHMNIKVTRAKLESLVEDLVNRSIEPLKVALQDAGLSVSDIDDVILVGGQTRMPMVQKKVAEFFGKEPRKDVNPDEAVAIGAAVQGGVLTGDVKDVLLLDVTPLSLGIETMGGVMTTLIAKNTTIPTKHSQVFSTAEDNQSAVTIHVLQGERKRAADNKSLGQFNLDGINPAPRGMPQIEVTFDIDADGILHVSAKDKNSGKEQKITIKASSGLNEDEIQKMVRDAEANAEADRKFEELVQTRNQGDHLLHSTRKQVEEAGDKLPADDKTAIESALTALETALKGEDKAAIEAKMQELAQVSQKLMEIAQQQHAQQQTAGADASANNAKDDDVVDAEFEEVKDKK

| SMILES | Kd |
| --- | --- |
| CC1(C)O[C@H]2[C@H](O)C[C@](O)(C(N)=O)C[C@H]2O1 | > 4 mM (inactive) |
| O=c1[nH]cc(N=Cc2ccc(F)cc2)c(=O)[nH]1 | > 4 mM (inactive) |
| O=C(O)c1onc2ccccc12 | > 4 mM (inactive) |
| O=C(O)C1Cc2ccccc2N1 (configuration not stated) | > 4 mM (inactive) |
| NCc1ccccc1N1CCOCC1 | > 4 mM (inactive) |
| C[C@H]1O[C@@H](O[C@H]2[C@@H](O)C[C@H](O[C@H]3[C@@H](O)C[C@H](O[C@H]4CC[C@]5(C)C6C[C@@H](O)[C@]7(C)[C@@H](C8=CC(=O)OC8)CC[C@]7(O)C6CC[C@@H]5C4)O[C@@H]3C)O[C@@H]2C)C[C@H](O)[C@@H]1O (some centres not stated) | > 4 mM (inactive) |
| NC(=O)C1CC2C=CC1C2 (configuration not stated) | > 4 mM (inactive) |
| Nc1ccc2c(c1)CCCC2=O | > 4 mM (inactive) |
| CCOC(=O)c1c(C)nc2c(C#N)cnn2c1C | > 4 mM (inactive) |
| CC(=O)CS(=O)(=O)c1ccccc1 | > 4 mM (inactive) |
| NC(=O)c1ccc(N=Cc2ccc[nH]2)cc1 | > 4 mM (inactive) |
| COC(=O)c1noc(-c2ccc(OC)cc2)n1 | > 4 mM (inactive) |
| COc1nc(C#N)c(N2CCOCC2)o1 | > 4 mM (inactive) |
| CC(=O)O[C@@H]1CC2C(C)(C)C(=O)C3OC3[C@]2(C)C2CC[C@@]3(C)[C@H](c4ccoc4)OC(=O)C4OC43[C@@]21C (some centres not stated) | > 4 mM (inactive) |
| Cc1cc(=O)oc2cc3c(cc12)OCCO3 | > 4 mM (inactive) |
| O=C(NC(=S)NCc1cccnc1)c1ccco1 | > 4 mM (inactive) |
| CC(=O)Oc1ccc(N2C(=O)C3C4C=CC(O4)C3C2=O)cc1 (configuration not stated) | > 4 mM (inactive) |
| CS(=O)(=O)N1CCN(C(=O)c2ccccc2)C1 | > 4 mM (inactive) |
| CN(C)S(=O)(=O)c1ccc(N2CCOCC2)nc1 | > 4 mM (inactive) |
| CCOC(=O)c1snnc1-c1ccccc1 | > 4 mM (inactive) |
| CNC(=S)Nc1ccc2c(c1)OCO2 | > 4 mM (inactive) |
| Cc1ccc(C)c(C(=O)NCc2ccncc2)c1 | > 4 mM (inactive) |
| O=C(O)C1CN(Cc2ccccc2)CCO1 (configuration not stated) | > 4 mM (inactive) |

| SMILES | Kd |
| --- | --- |
| O=C(c1ccncc1)c1ccc(Br)cc1 | > 4 mM (inactive) |
| [O-][n+]1cc(O)c(CN2CCOCC2)c2ccccc21 | > 4 mM (inactive) |
| CC(C)CCCC(C)[C@H]1CCC2C3CC[C@H]4CC(=O)CC[C@]4(C)C3CC[C@@]21C (some centres not stated) | > 4 mM (inactive) |
| Cc1ccc(SCc2nc(-c3ccncc3)no2)cc1 | > 4 mM (inactive) |
| CCOC(=O)Cn1cnc2sc3c(c2c1=O)CCC3 | > 4 mM (inactive) |
| NCc1csc(-c2ccccc2)n1 | > 4 mM (inactive) |
| O=C(Nc1ccon1)c1cccc(C(F)(F)F)c1 | > 4 mM (inactive) |
| CC1CCCN(C/C(O)=C(\C#N)c2nc3ccccc3[nH]2)C1 (configuration not stated) | > 4 mM (inactive) |
| CNC(=O)c1cc(S(=O)(=O)N(C)C)ccc1Cl | > 4 mM (inactive) |
| OCC12COC3c4ccccc4C(OC1)N32 (configuration not stated) | > 4 mM (inactive) |
| Cc1ccc(-c2cc(C(=O)N3CCCC3)no2)cc1 | > 4 mM (inactive) |
| O=c1ccn([C@@H]2O[C@H](COP(=O)(O)OP(=O)(O)OP(=O)(O)O)[C@@H](O)[C@H]2O)c(=O)[nH]1 | > 4 mM (inactive) |
| CC(=O)Nc1sccc1C(N)=O | > 4 mM (inactive) |
| CC(C)c1ccc2c(c1)CCC1[C@](C)(CN)CCC[C@]21C (some centres not stated) | > 4 mM (inactive) |
| CC(CCC(=O)O)[C@H]1CCC2C3CC[C@@H]4CCCC[C@]4(C)C3CC[C@@]21C (some centres not stated) | > 4 mM (inactive) |
| N#CCCn1ccnc1-c1ccccc1 | > 4 mM (inactive) |
| c1ccc2[nH]c(SCc3cscn3)nc2c1 | > 4 mM (inactive) |
| COC(=O)c1ccc(N2CCOCC2)nc1 | > 4 mM (inactive) |
| Nc1ccncc1 | > 4 mM (inactive) |
| O=C(O)CN(CCCc1ccccc1)CC(=O)O | > 4 mM (inactive) |
| O=C(O)c1ccc2c(c1)OCO2 | > 4 mM (inactive) |
| O=C(NC1=NCCS1)c1cccc(F)c1 | > 4 mM (inactive) |
| CC(C)NC1CS(=O)(=O)CC1O (configuration not stated) | > 4 mM (inactive) |

| SMILES | Kd |
| --- | --- |
| Cc1cc(C(=O)N2CCN(c3ccccn3)CC2)no1 | > 4 mM (inactive) |
| CN(C)C(=O)CCNS(=O)(=O)c1ccccc1 | > 4 mM (inactive) |
| Nc1ccc(NS(=O)(=O)c2ccc(N)cc2)cc1 | > 4 mM (inactive) |
| CS(=O)(=O)Nc1nnc(Cc2ccccc2)s1 | > 4 mM (inactive) |
| CC(=O)NC(=S)Nc1ccccc1N1CCOCC1 | > 4 mM (inactive) |
| O=C(O)c1[nH]nc2c1COc1ccccc1-2 | > 4 mM (inactive) |
| CCOC(=O)c1ccc2c(c1)nnn2C | > 4 mM (inactive) |
| NCCc1nc2ccccc2[nH]1 | > 4 mM (inactive) |
| COc1ccc(C(N)=O)cc1NC(C)=O | > 4 mM (inactive) |
| C=CC(C)(O)CC/C=C(\C)CCC=C(C)C (configuration not stated) | > 4 mM (inactive) |
| OC12C=CC(CC1)CC2 | > 4 mM (inactive) |
| COc1ccc(-c2coc3c(OC)c(OC)cc(OC)c3c2=O)cc1 | > 4 mM (inactive) |
| CC(C)c1c(O)ccc2c1CCC1C(C)(C)CCC[C@]21C (some centres not stated) | > 4 mM (inactive) |
| NCC(N)C(=O)c1ccccc1 (configuration not stated) | > 4 mM (inactive) |
| O=C1CSC(=O)N1CN1CCOCC1 | > 4 mM (inactive) |
| Cc1occc1C(=O)N1CCN(S(C)(=O)=O)CC1 | > 4 mM (inactive) |
| Fc1ccc(F)c(CN2CCN(c3ncccn3)CC2)c1 | > 4 mM (inactive) |
| O=c1c(O)cc([C@H]2Oc3cc(O)cc(O)c3C[C@H]2O)cc2c([C@H]3Oc4cc(O)cc(O)c4C[C@H]3O)cc(O)c(O)c12 | > 4 mM (inactive) |
| COc1cccc2c1CCC1=CC(=O)CC[C@@]12C | > 4 mM (inactive) |
| O=C1CSC(=Nc2ccc(O)cc2)N1 | > 4 mM (inactive) |
| CNc1nnc(Cc2csc(N)n2)s1 | > 4 mM (inactive) |
| CCc1ccccc1NC(=O)c1cnccn1 | > 4 mM (inactive) |
| NC(=O)CSCc1c(Cl)cccc1Cl | > 4 mM (inactive) |

| SMILES | Kd |
| --- | --- |
| CC(=O)Oc1c2c(c3c(c1CC=C(C)C)O[C@]14C(=C[C@@H]5CC1C(C)(C)OC4(C/C=C(\C)C(=O)O)C5=O)C3=O)OC(C)(CCC=C(C)C)C=C2 (some centres not stated) | > 4 mM (inactive) |
| O=c1[nH]cc(COCc2ccccc2)c(=O)[nH]1 | > 4 mM (inactive) |
| O=C(Nc1ccccc1)Nc1ccccc1 | > 4 mM (inactive) |
| Cc1nn2c(-c3ccco3)nnc2c2ccccc12 | > 4 mM (inactive) |
| OCC1CCCCCN1 (configuration not stated) | > 4 mM (inactive) |
| CC(C)(CO)NC(=O)c1ccccc1F | > 4 mM (inactive) |
| Cc1cc(C)n2nc(-c3cccnc3)nc2n1 | > 4 mM (inactive) |
| NC(=O)C(=O)NCc1ccc(Cl)cc1 | > 4 mM (inactive) |
| CN=C(C)c1c(O)n(C)c(=S)n(C)c1=O | > 4 mM (inactive) |
| CC(C)=CCOc1c2occc2cc2ccc(=O)oc12 | > 4 mM (inactive) |
| O=C(Nc1ccc2c(c1)OCO2)c1ccc(=O)[nH]n1 | > 4 mM (inactive) |
| CC(=O)Nc1ccc(N2C(=O)C=CC2=O)cc1C | > 4 mM (inactive) |
| O=C1NC(=Nc2ccccc2)S/C1=C/c1cccnc1 | > 4 mM (inactive) |
| Cc1nn(-c2ccccc2)nc1C(=O)O | > 4 mM (inactive) |
| CC(=O)N1CN(C(C)=O)CN(C(C)=O)C1 | > 4 mM (inactive) |
| O=C1C2C3C=CC(C3)C2C(=O)N1c1cccnc1 (configuration not stated) | > 4 mM (inactive) |
| Cc1c(C(=O)Nc2ccccc2)sc(N)c1C(N)=O | > 4 mM (inactive) |
| c1ccc2c(c1)ncn2CCn1cnc2ccccc21 | > 4 mM (inactive) |
| CC(C)NC(=S)N1CCN(S(C)(=O)=O)CC1 | > 4 mM (inactive) |
| COc1cc(NC(=O)c2ccccc2)c(C)cc1N | > 4 mM (inactive) |
| Cc1cc(C)n(CCCC(=O)O)n1 | > 4 mM (inactive) |
| CC(=O)N1CCC(NC2CCCCCC2)CC1 | > 4 mM (inactive) |
| Cc1ccc(/C=C/C(=O)O)cc1S(=O)(=O)NCCO | > 4 mM (inactive) |

| SMILES | Kd |
| --- | --- |
| CCSc1nnc2[nH]c(=O)cc(C)n12 | > 4 mM (inactive) |
| O=C1CSC(=Nc2ccccc2[N+](=O)[O-])N1 | > 4 mM (inactive) |
| COCC(=O)NC1CC(C)(C)NC(C)(C)C1 | > 4 mM (inactive) |
| C[C@@H]1CC[C@@]2(OC1)OC1C(O)C3C4CC[C@H]5C[C@H](O[C@@H]6O[C@H](CO)[C@H](O[C@@H]7O[C@H](CO)[C@@H](O)[C@H](O[C@@H]8OC[C@@H](O)[C@H](O)[C@H]8O)[C@H]7O[C@@H]7O[C@H](CO)[C@H](O)[C@H](O[C@@H]8O[C@H](CO)[C@@H](O)[C@H](O)[C@H]8O)[C@H]7O)[C@H](O)[C@H]6O)[C@H](O)C[C@]5(C)C4CC[C@]3(C)C1[C@@H]2C (some centres not stated) | > 4 mM (inactive) |
| CC(C)(C)P(=O)(O)c1ccccc1 | > 4 mM (inactive) |
| C[C@@H]1CC[C@@]23CCC4(C)[C@@](C=CC5[C@@]6(C)CCC(=O)C(C)(C)C6CC[C@]54C)(OC2=O)C3[C@H]1C (some centres not stated) | > 4 mM (inactive) |
| O=C(NC1=NCCS1)c1ccc2snnc2c1 | > 4 mM (inactive) |
| Cc1ccccc1NC(=O)N1CCOCC1 | > 4 mM (inactive) |
| CC1=CC(C)C(C(=O)O)C(C(=O)N2CCN(C)CC2)C1 (configuration not stated) | > 4 mM (inactive) |
| Fc1ccc(N2CCNCC2)cc1 | > 4 mM (inactive) |
| CC(=O)O[C@H]1C[C@@H](OC(C)=O)C(C)(C)C2C[C@@H](OC(C)=O)[C@]3(C)C([C@H](OC(C)=O)C[C@@]4(C)[C@H](c5ccoc5)OC(=O)[C@H]5O[C@]543)[C@]21C (some centres not stated) | > 4 mM (inactive) |
| O=P(O)(Cc1ccccc1)c1ccccc1 | > 4 mM (inactive) |
| Nc1ccc(S(=O)(=O)N2CCOCC2)cc1 | > 4 mM (inactive) |
| Nc1ncnc(NCc2cccnc2)c1[N+](=O)[O-] | > 4 mM (inactive) |
| CC(C)C(=O)NCC(c1ccco1)N1CCOCC1 (configuration not stated) | > 4 mM (inactive) |
| O=c1[nH]cnc2nn(-c3ccccc3)nc12 | > 4 mM (inactive) |
| NC(=O)c1ccc(SCC(=O)O)c([N+](=O)[O-])c1 | > 4 mM (inactive) |
| COc1ccc(C)cc1S(=O)(=O)Nc1ccccc1C | > 4 mM (inactive) |
| O=c1nc(N2CCOCC2)nc2n1CCO2 | > 4 mM (inactive) |
| O=c1ccc2nc3ccccc3c(=O)n2[nH]1 | > 4 mM (inactive) |
